{"source": "patent US10206937B2", "about": "“Boronic acid derivatives and therapeutic uses thereof” (Qpex Biopharma, Inc., priority 2014, dated 2019)", "test_system": "strains of Enterobacteriaceae producing various carbapenemases (class A, D and B; 104 strains)", "experiment": "Antibiotics potentiation by Compound 27 (MIC; meropenem, doripenem, ertapenem, cefepime)", "assay_type": "cell-based", "details": "+ 27 = with Compound 27 at fixed 4 μg/ml"}
{"smiles": "COc1ccc2c(c1C(=O)O)OB(O)C(Sc1nnc(N)s1)C2", "note": "(stereo not shown) [M + 27]", "values": [{"measurement": "MIC", "setting": "strain KP1081 Klebsiella pneumoniae (NDM-1, TEM-1, SHV-11, CMY-6, CTX-M-15)", "result": "X (MIC of less than 1 μg/mL)"}, {"measurement": "MIC", "setting": "strain KP1082 Klebsiella pneumoniae (KPC-2, SHV-1)", "result": "X (MIC of less than 1 μg/mL)"}, {"measurement": "MIC", "setting": "strain KP1083 Klebsiella pneumoniae (KPC-3, SHV-1, TEM-1)", "result": "X (MIC of less than 1 μg/mL)"}, {"measurement": "MIC", "setting": "strain KP1084 Klebsiella pneumoniae (KPC-3, SHV-11, TEM-1)", "result": "Y (MIC of 1 μg/mL to 10 μg/mL)"}, {"measurement": "MIC", "setting": "strain KP1086 Klebsiella pneumoniae (OXA-48, CTX-M-15, TEM, SHV)", "result": "Y (MIC of 1 μg/mL to 10 μg/mL)"}, {"measurement": "MIC", "setting": "strain KP1087 Klebsiella pneumoniae (KPC-2, CTX-M-15, SHV-11, TEM-1)", "result": "Y (MIC of 1 μg/mL to 10 μg/mL)"}, {"measurement": "MIC", "setting": "strain KP1088 Klebsiella pneumoniae (KPC-3, SHV-11, TEM-1)", "result": "X (MIC of less than 1 μg/mL)"}, {"measurement": "MIC", "setting": "strain KP1089 Klebsiella pneumonias (OXA-181, CTX-M-15, TEM, SHV)", "result": "X (MIC of less than 1 μg/mL)"}, {"measurement": "MIC", "setting": "strain KP1095 Klebsiella pneumoniae (KPC-2 TEM-1 SHV-1)", "result": "X (MIC of less than 1 μg/mL)"}, {"measurement": "MIC", "setting": "strain KP1096 Klebsiella pneumoniae (KPC-2 TEM-181 SHV-11)", "result": "X (MIC of less than 1 μg/mL)"}, {"measurement": "MIC", "setting": "strain KP1097 Klebsiella pneumonias (IMP-1)", "result": "X (MIC of less than 1 μg/mL)"}, {"measurement": "MIC", "setting": "strain KP1098 Klebsiella pneumoniae (IMP-26)", "result": "Y (MIC of 1 μg/mL to 10 μg/mL)"}, {"measurement": "MIC", "setting": "strain KP1104 Klebsiella pneumoniae (KPC TEM)", "result": "X (MIC of less than 1 μg/mL)"}, {"measurement": "MIC", "setting": "strain KP1105 Klebsiella pneumoniae (KPC TEM SHV)", "result": "X (MIC of less than 1 μg/mL)"}, {"measurement": "MIC", "setting": "strain KP1159 Klebsiella pneumoniae (SHV-1(2b); CTX-M-15; IMP-4)", "result": "X (MIC of less than 1 μg/mL)"}, {"measurement": "MIC", "setting": "strain KP1160 Klebsiella pneumoniae (SHV-28(2be); CTX-M-15; IMP-26)", "result": "X (MIC of less than 1 μg/mL)"}, {"measurement": "MIC", "setting": "strain KP1161 Klebsiella pneumoniae (NDM-1)", "result": "X (MIC of less than 1 μg/mL)"}, {"measurement": "MIC", "setting": "strain KP1164 Klebsiella pneumoniae (SHV-12(2be); VIM-1)", "result": "X (MIC of less than 1 μg/mL)"}, {"measurement": "MIC", "setting": "strain KP1165 Klebsiella pneumoniae (SHV-11(2b); CTX-M-15; VIM-27)", "result": "Z (MIC of greater than 10 μg/mL)"}, {"measurement": "MIC", "setting": "strain KP1166 Klebsiella pneumoniae (SHV-5(2be); VIM-26)", "result": "Y (MIC of 1 μg/mL to 10 μg/mL)"}, {"measurement": "MIC", "setting": "strain KP1167 Klebsiella pneumoniae (SHV-12(2be); VIM-1)", "result": "X (MIC of less than 1 μg/mL)"}, {"measurement": "MIC", "setting": "strain KP1169 Klebsiella pneumoniae (SHV-11(2b); VIM-1)", "result": "X (MIC of less than 1 μg/mL)"}, {"measurement": "MIC", "setting": "strain KP1170 Klebsiella pneumoniae (SHV-11(2b); CTX-M-15; NDM-1)", "result": "X (MIC of less than 1 μg/mL)"}, {"measurement": "MIC", "setting": "strain KP1172 Klebsiella pneumoniae (SHV-31(2be); DHA-1; VIM-1)", "result": "X (MIC of less than 1 μg/mL)"}, {"measurement": "MIC", "setting": "strain KP1173 Klebsiella pneumoniae (TEM-33(2br); CTX-M-15; IMP-1)", "result": "X (MIC of less than 1 μg/mL)"}, {"measurement": "MIC", "setting": "strain KP1174 Klebsiella pneumoniae (CTX-M-14; IMP-1)", "result": "X (MIC of less than 1 μg/mL)"}, {"measurement": "MIC", "setting": "strain KP1175 Klebsiella pneumoniae (SHV-OSBL(2b); VIM-1)", "result": "X (MIC of less than 1 μg/mL)"}, {"measurement": "MIC", "setting": "strain KP1177 Klebsiella pneumoniae (SHV-OSBL(2b), TEM-OSBL(2b); CTX-M-15; NDM-1)", "result": "X (MIC of less than 1 μg/mL)"}, {"measurement": "MIC", "setting": "strain KP1178 Klebsiella pneumoniae (SHV-OSBL(2b;) TEM-OSBL(2b); CTX-M-15; NDM-1)", "result": "X (MIC of less than 1 μg/mL)"}, {"measurement": "MIC", "setting": "strain KP1179 Klebsiella pneumoniae (SHV-12(2be), TEM-OSBL(2b); CTX-M-15; NDM-7)", "result": "X (MIC of less than 1 μg/mL)"}, {"measurement": "MIC", "setting": "strain KP1180 Klebsiella pneumoniae (SHV-OSBL(2b), TEM-OSBL(2b); CTX-M-15; DHA-1; IMP-26)", "result": "X (MIC of less than 1 μg/mL)"}, {"measurement": "MIC", "setting": "strain KP1181 Klebsiella pneumoniae (SHV-OSBL(2b); CTX-M-15; IMP-26)", "result": "X (MIC of less than 1 μg/mL)"}, {"measurement": "MIC", "setting": "strain KP1183 Klebsiella pneumoniae (SHV-OSBL(2b), TEM-OSBL(2b); CTX-M-15; NDM-1)", "result": "X (MIC of less than 1 μg/mL)"}, {"measurement": "MIC", "setting": "strain KP1184 Klebsiella pneumoniae (SHV-OSBL(2b); IMP-1)", "result": "X (MIC of less than 1 μg/mL)"}, {"measurement": "MIC", "setting": "strain KP1185 Klebsiella pneumoniae (SHV-OSBL(2b), TEM-OSBL(2b); IMP-4)", "result": "Y (MIC of 1 μg/mL to 10 μg/mL)"}, {"measurement": "MIC", "setting": "strain KP1186 Klebsiella pneumoniae (CTX-M-15; NDM-1)", "result": "X (MIC of less than 1 μg/mL)"}, {"measurement": "MIC", "setting": "strain KP1187 Klebsiella pneumoniae (SHV-55(2be), TEM-OSBL(2b); CTX-M-15; NDM-1)", "result": "X (MIC of less than 1 μg/mL)"}, {"measurement": "MIC", "setting": "strain KP1188 Klebsiella pneumoniae (SHV-OSBL(2b); CTX-M-15; NDM-1)", "result": "Y (MIC of 1 μg/mL to 10 μg/mL)"}, {"measurement": "MIC", "setting": "strain KP1189 Klebsiella pneumoniae (TEM-OSBL(2b); CTX-M-15; CTX-M-27; NDM-1)", "result": "X (MIC of less than 1 μg/mL)"}, {"measurement": "MIC", "setting": "strain KPM1123 Klebsiella pneumoniae (KPC-2 TEM SHV)", "result": "X (MIC of less than 1 μg/mL)"}, {"measurement": "MIC", "setting": "strain KPM1202 Klebsiella pneumoniae (KPC SHV TEM)", "result": "X (MIC of less than 1 μg/mL)"}, {"measurement": "MIC", "setting": "strain KPM1203 Klebsiella pneumoniae (KPC SHV TEM)", "result": "X (MIC of less than 1 μg/mL)"}, {"measurement": "MIC", "setting": "strain KPM1344 Klebsiella pneumoniae (VIM-1)", "result": "X (MIC of less than 1 μg/mL)"}, {"measurement": "MIC", "setting": "strain KPM1345 Klebsiella pneumoniae (VIM-1 SHV)", "result": "X (MIC of less than 1 μg/mL)"}, {"measurement": "MIC", "setting": "strain KPM1347 Klebsiella pneumoniae (NDM-1 SHV CTX-M-15)", "result": "X (MIC of less than 1 μg/mL)"}, {"measurement": "MIC", "setting": "strain KX1017 Klebsiella oxytoca (KPC-2, OXA-2, SHV-30)", "result": "X (MIC of less than 1 μg/mL)"}, {"measurement": "MIC", "setting": "strain KX1018 Klebsiella oxytoca (KPC-2, SHV-40, OXY-1)", "result": "X (MIC of less than 1 μg/mL)"}, {"measurement": "MIC", "setting": "strain KX1019 Klebsiella oxytoca (KPC-2, OXA-2)", "result": "X (MIC of less than 1 μg/mL)"}, {"measurement": "MIC", "setting": "strain PM1024 Proteus mirabilis (TEM-1(2b); CMY-16; VIM-1)", "result": "X (MIC of less than 1 μg/mL)"}, {"measurement": "MIC", "setting": "strain PM1026 Proteus mirabilis (DHA-1; IMP-26)", "result": "X (MIC of less than 1 μg/mL)"}, {"measurement": "MIC", "setting": "strain PM1027 Proteus mirabilis (VIM-5)", "result": "X (MIC of less than 1 μg/mL)"}, {"measurement": "MIC", "setting": "strain SM1023 Serratia marcescens (VIM-4)", "result": "Y (MIC of 1 μg/mL to 10 μg/mL)"}]}
